Where a name gives a salt, the structure may show the parent alone.
Key:
[1] = target: T1, human PRMT5/MEP50 enzyme (Homo sapiens (Human), UniProt O14744); experiment: PRMT5 Biochemical Assay (TR-FRET) in the presence of MTA; conditions: with 800 nM MTA; 10 nM PRMT5/MEP50, 3 μM S-adenosylmethionine, histone H4 peptide
Procedure: (§1) The assay measures the methylation activity of purified human PRMT5/MEP50 enzyme toward histone H4-R3. Compounds disclosed herein were tested for inhibition of PRMT5/MEP50 using PRMT5 TR-FRET Assay Kit (BPS Bioscience) which contains a highly specific antibody that recognizes methylated substrates. The assay was carried out in 384-well low volume black plates in a reaction mixture containing 10 nM PRMT5/MEP50 complex, biotinylated histone H4 peptide, 3 μM S-adenosylmethionine and 0-10 μM compound in buffer containing 50 mM Tris-HCl buffer (pH 8.5), 0.005% BSA, 1 mM TCEP and 0.002% Tween-20. The PRMT5/MEP50 enzyme was incubated with compounds disclosed herein and biotinylated histone H4 peptide for 20 minutes at room temperature. The reaction was initiated by addition of S-adenosylmethionine. After reacting at room temperature for 120 minutes, the detection solution containing Eu-labeled antibody and dye-labeled acceptor in detection buffer was added to the reaction mixture. Plates were sealed and incubated at room temperature for 60 minutes, and the TR-FRET signals (excitation 337 nm, emission 665/620 nm) were recorded on a PHERAstar FSX plate reader (BMG Labtech). The inhibition percentage of PRMT5/MEP50 activity in presence of increasing concentrations of compounds was calculated based on the ratio of fluorescence at 665 nm to that at 620 nm. The IC50 value for each compound was derived from fitting the dose-response % inhibition data to the four-parameter logistic model by Dotmatics. And the compounds were tested in the presence and absence of MTA to evaluate whether the compounds display MTA-cooperative activity.

[2] = target: T1, human PRMT5/MEP50 enzyme; experiment: PRMT5 Biochemical Assay (TR-FRET) in the absence of MTA; conditions: without MTA; 10 nM PRMT5/MEP50, 3 μM S-adenosylmethionine, histone H4 peptide
Procedure: as §1

T1 sequence (O14744 whole entry): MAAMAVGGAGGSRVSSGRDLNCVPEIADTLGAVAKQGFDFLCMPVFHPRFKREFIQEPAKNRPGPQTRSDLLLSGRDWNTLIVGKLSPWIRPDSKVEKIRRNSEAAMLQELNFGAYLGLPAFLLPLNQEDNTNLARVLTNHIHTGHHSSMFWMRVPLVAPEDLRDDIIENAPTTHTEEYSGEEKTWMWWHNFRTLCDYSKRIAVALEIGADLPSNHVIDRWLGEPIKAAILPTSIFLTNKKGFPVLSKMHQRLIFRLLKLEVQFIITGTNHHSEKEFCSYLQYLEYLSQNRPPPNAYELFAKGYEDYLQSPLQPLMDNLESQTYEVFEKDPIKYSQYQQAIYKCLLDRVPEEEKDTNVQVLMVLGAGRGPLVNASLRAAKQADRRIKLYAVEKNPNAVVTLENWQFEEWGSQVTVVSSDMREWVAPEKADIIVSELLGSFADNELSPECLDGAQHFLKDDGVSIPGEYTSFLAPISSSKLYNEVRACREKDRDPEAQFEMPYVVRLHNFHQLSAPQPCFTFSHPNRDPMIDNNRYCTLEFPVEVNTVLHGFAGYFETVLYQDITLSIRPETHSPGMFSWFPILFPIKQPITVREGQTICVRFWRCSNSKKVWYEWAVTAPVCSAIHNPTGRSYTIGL
T1 sequence (Q9BQA1 whole entry partner): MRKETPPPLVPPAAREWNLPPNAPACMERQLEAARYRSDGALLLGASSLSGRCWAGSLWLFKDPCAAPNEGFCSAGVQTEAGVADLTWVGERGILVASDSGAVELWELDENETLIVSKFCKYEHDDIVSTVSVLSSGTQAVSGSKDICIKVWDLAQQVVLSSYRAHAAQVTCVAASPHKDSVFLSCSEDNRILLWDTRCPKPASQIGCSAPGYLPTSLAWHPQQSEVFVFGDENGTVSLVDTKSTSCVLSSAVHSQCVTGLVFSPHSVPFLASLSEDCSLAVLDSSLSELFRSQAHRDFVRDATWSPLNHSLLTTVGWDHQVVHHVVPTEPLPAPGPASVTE

Compound	IC50 [1] [nM]	IC50 [2] [nM]
Cn1ncc(-c2ccc3c(=O)[nH]cc(CN)c3c2)c1-c1c(F)cc2ccccc2c1C#N [Example 1, 2-(4-(4-(aminomethyl)-1-oxo-1,2-dihydroisoquinolin-6-yl)-1-methyl-1H-pyrazol-5-yl)-3-fluoro-1-naphthonitrile]	3.2	29
Cc1cc(-c2c(-c3ccc4c(=O)[nH]cc(CN)c4c3)cnn2C)c(C#N)c2ccccc12 [Example 4, 2-(4-(4-(aminomethyl)-1-oxo-1,2-dihydroisoquinolin-6-yl)-1-methyl-1H-pyrazol-5-yl)-4-methyl-1-naphthonitrile hydrochloride]	2.7	29
Cn1ncc(-c2ccc3c(=O)[nH]cc(CN)c3c2)c1-c1cc(Cl)c2ccccc2c1C#N [Example 5, 2-(4-(4-(aminomethyl)-1-oxo-1,2-dihydroisoquinolin-6-yl)-1-methyl-1H-pyrazol-5-yl)-4-chloro-1-naphthonitrile hydrochloride]	2.7	27
Cn1ncc(-c2ccc3c(=O)[nH]cc(CN)c3c2)c1-c1cc(C(F)(F)F)cc(OC2CC2)c1C#N [Example 7, 2-(4-(4-(aminomethyl)-1-oxo-1,2-dihydroisoquinolin-6-yl)-1-methyl-1H-pyrazol-5-yl)-6-cyclopropoxy-4-(trifluoromethyl)benzonitrile hydrochloride]	6.2	165

The remaining lines, values ahead:

IC50 [1] [nM]	IC50 [2] [nM]	Compound
3.3	77	Cn1ncc(-c2ccc3c(=O)[nH]cc(CN)c3c2)c1-c1cc(Cl)cc(OC2CC2)c1C#N [Example 2, 2-(4-(4-(aminomethyl)-1-oxo-1,2-dihydroisoquinolin-6-yl)-1-methyl-1H-pyrazol-5-yl)-4-chloro-6-cyclopropoxybenzonitrile hydrochloride]
7.6	68	Cn1ncc(-c2ccc3c(=O)[nH]cc(CN)c3c2)c1-c1c(F)c(Cl)cc(OC2CC2)c1C#N [Example 3, 2-(4-(4-(aminomethyl)-1-oxo-1,2-dihydroisoquinolin-6-yl)-1-methyl-1H-pyrazol-5-yl)-4-chloro-6-cyclopropoxy-3-fluorobenzonitrile hydrochloride]
3.5	87	Cn1ncc(-c2ccc3c(=O)[nH]cc(CN)c3c2)c1-c1cccc(OC2CC2)c1C#N [Example 6, 2-(4-(4-(aminomethyl)-1-oxo-1,2-dihydroisoquinolin-6-yl)-1-methyl-1H-pyrazol-5-yl)-6-cyclopropoxybenzonitrile hydrochloride]

Source: patent US20250000854A1, “4-(Aminomethyl)-6-(1-Methyl-1H-Pyrazol-4-YL)Isoquinolin-1(2H)-One Derivatives as MTA-Cooperative Inhibitors of PRMT5” (BeiGene, Ltd., priority 2022, published 2025)
